Source: PMC3214022, “Plasmodium falciparum Parasites Are Killed by a Transition State Analogue of Purine Nucleoside Phosphorylase in a Primate Animal Model” (PLoS ONE, 2011)

Experiment: Weights, CBC, blood chemistry and signs of toxicity, Table S1 sheet PD-2 (infected Aotus, twice a day for seven days)
Assay type: in vivo, Aotus lemurinus lemurinus
Details: oral 10 mg/kg twice a day/7 days
Experimental: Laboratory bred Aotus lemurinus lemurinus monkeys (0.75–0.89 kg) were maintained as described. […] Blood samples were collected before the treatment started (t = 0), 0.05 h, 0.5 h, 1 h, 2 h, 6 h, 24 h, 48 h, and 6, 12 and 18 days after the first dose from each monkey and processed as described below. Pharmacokinetic parameters were calculated using PKSolver. For efficacy studies, Aotus monkeys were inoculated intravenously with 5×10^6 parasites of the FVO strain of P. falciparum in an approved treatment protocol. […] Parasitaemia was determined by Giemsa-stained thick blood smears prepared daily from the marginal ear vein [41]. Blood samples were collected from each monkey and transferred to tubes containing lithium heparin, centrifuged and both plasma and blood cells were frozen at −80 °C until analysis. Animals received a physical examination and blood chemistry profiles were monitored after treatment as described previously. Any monkey not responding appropriately to treatment was cured of its infection with mefloquine (40 mg kg^−1). […] The day of clearance is defined as the first of three consecutive days in which the thick blood films are parasite negative. The day of recrudescence is the first of three consecutive days of positive thick blood films after a period of clearance. Suppression is defined as a transient decrease in the parasite count post-treatment without clearance.

## Nc1nc2c(CN3CC(O)C(CO)C3)c[nH]c2c(=O)[nH]1 (stereo not shown) [BCX4945, 4′-deaza-1′-aza-2′-deoxy-1′-(9-methylene)-Immucillin-G]
25044 Male (ITM2), day 25
  Mean Corpuscular Volume: 86 fL
  Mean Hemoglobin Content: 32.1 g/dL
  Mean Platelet Volume: 12.7 fL
  Monocytes (%): 9.5%
  Monocytes (x 103/ul): 1.9 x 103/ul
  Platelets: 166000 µL⁻¹
  Red Cell Distribution Width: 22.2%
  Reticulocytes: 2.6%
  WEIGHT: 827 g
25044 Male (ITM2), day -10
  Blood Urea Nitrogen: 11.3 mg/dL
  Creatine: 0.5 mg/dL
  Erythrocytes: 5.93e+06 µL⁻¹
  Glutamate Pyruvate Transaminase: 17.1 U/L
  Granulocytes (%): 13.3%
  Granulocytes (x 103/ul): 4.2 x 103/ul
  Hematocrit: 44.6%
  Hemoglobin: 15.8 g/dL
  Leucocytes: 31300 µL⁻¹
  Lymphocytes (%): 76.1%
  Lymphocytes (x 103/ul): 23.8 x 103/ul
  Mean Corpuscular Hemoglobin: 26.7 pg
  Mean Corpuscular Volume: 75.2 fL
  Mean Hemoglobin Content: 35.5 g/dL
  Mean Platelet Volume: 13.1 fL
  Monocytes (%): 10.6%
  Monocytes (x 103/ul): 3.3 x 103/ul
  Platelets: 236000 µL⁻¹
  Red Cell Distribution Width: 13%
  Reticulocytes: 1.2%
  WEIGHT: 814 g
26027 Male (ITM3), day 8
  Blood Urea Nitrogen: 12.75 mg/dL
  Creatine: 0.5 mg/dL
  Erythrocytes: 4.51e+06 µL⁻¹
  Glutamate Pyruvate Transaminase: 28.1 U/L
  Granulocytes (%): 18.4%
  Granulocytes (x 103/ul): 2.2 x 103/ul
  Hematocrit: 36.2%
  Hemoglobin: 13.0 g/dL
  Leucocytes: 11800 µL⁻¹
  Lymphocytes (%): 70.2%
  Lymphocytes (x 103/ul): 8.3 x 103/ul
  Mean Corpuscular Hemoglobin: 28.9 pg
  Mean Corpuscular Volume: 80.2 fL
  Mean Hemoglobin Content: 36 g/dL
  Mean Platelet Volume: 11.7 fL
  Monocytes (%): 11.4%
  Monocytes (x 103/ul): 1.3 x 103/ul
  Platelets: 216000 µL⁻¹
  Red Cell Distribution Width: 11.8%
  Reticulocytes: 1.4%
  WEIGHT: 890 g
26027 Male (ITM3), day 12
  Blood Urea Nitrogen: 12.9 mg/dL
  Creatine: 0.5 mg/dL
  Erythrocytes: 4.4e+06 µL⁻¹
  Glutamate Pyruvate Transaminase: 33.4 U/L
  Granulocytes (%): 26.5%
  Granulocytes (x 103/ul): 4.8 x 103/ul
  Hematocrit: 36.1%
  Hemoglobin: 13.1 g/dL
  Leucocytes: 18200 µL⁻¹
  Lymphocytes (%): 67.6%
  Lymphocytes (x 103/ul): 12.3 x 103/ul
  Mean Corpuscular Hemoglobin: 29.8 pg
  Mean Corpuscular Volume: 82.1 fL
  Mean Hemoglobin Content: 36.3 g/dL
  Mean Platelet Volume: 12.2 fL
  Monocytes (%): 5.9%
  Monocytes (x 103/ul): 1.1 x 103/ul
  Platelets: 339000 µL⁻¹
  Red Cell Distribution Width: 12.1%
  Reticulocytes: 2.6%
  WEIGHT: 890 g
26027 Male (ITM3), day 15
  Blood Urea Nitrogen: 17.15 mg/dL
  Creatine: 0.512 mg/dL
  Erythrocytes: 4.77e+06 µL⁻¹
  Glutamate Pyruvate Transaminase: 27.1 U/L
  Granulocytes (%): 32.6%
  Granulocytes (x 103/ul): 4 x 103/ul
  Hematocrit: 40.6%
  Hemoglobin: 14.5 g/dL
  Leucocytes: 12200 µL⁻¹
  Lymphocytes (%): 63%
  Lymphocytes (x 103/ul): 7.7 x 103/ul
  Mean Corpuscular Hemoglobin: 30.4 pg
  Mean Corpuscular Volume: 85 fL
  Mean Hemoglobin Content: 35.8 g/dL
  Monocytes (%): 4.4%
  Monocytes (x 103/ul): 0.5 x 103/ul
  Platelets: 245000 µL⁻¹
  Red Cell Distribution Width: 18.5%
  Reticulocytes: 3.1%
